According to patent publication US8008329B2 (Dong Wha Pharmaceutical Co., Ltd., priority 2008, dated 2011):
Marks after values point to notes of the source that are not given here.

Tested on: osteoclast differentiation
Experiment: Osteoclast differentiation in co-culture of mouse bone marrow cells and ST2 cells, TRAP staining (Examples 8-9)
Type: cell-based
Settings: for % number of osteoclast (vs. solvent control group): 0.1 μM each, day 7; for activity at 0.1 µM: Mus musculus, Osteoclast, 168 h, Individual treatment (compounds), day 7, read-out: % number of osteoclast (vs. solvent control group)
Summary of the method: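 Bone marrow cells from 6-8-week male ddY mice were co-cultured with ST2 stromal cells under 10^−8 M vitamin D3 and 10^−8 M dexamethasone, with compounds at 0.1 μM final (0.1% DMSO control), refreshed on days 3 and 5. On day 7, TRAP-positive osteoclasts with ≥6 nuclei were counted and expressed as % of solvent control (n=4).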

[1] = Combination treatment (alendronic acid + compounds)
[2] = Combination treatment (risedronic acid + compounds)

Structure (SMILES)	% number of osteoclast (vs. solvent control group) [1]	% number of osteoclast (vs. solvent control group) [2]	activity at 0.1 µM [%]
Cc1nc(-c2ccc(OCCCCCOc3ccc(C(=N)NO)cc3)cc2)c(CCN2CCCCC2)s1 [Compound 216, N-hydroxy-4-(5-{4-[2-methyl-5-(2-piperidin-1-yl-ethyl)-thiazol-4-yl]-phenoxy}-pentyloxy)-benzamidine]	72 ± 13.0%	48 ± 7.8^ac %	70 ± 5
Cc1nc(-c2ccc(OCCCCCOc3ccc(C(=N)NO)cc3)cc2)c(CCNCCCOC(C)C)s1 [Compound 220, N-hydroxy-4-[5-(4-{5-[2-(3-isopropoxy-propylamino)-ethyl]-2-methyl-thiazol-4-yl}-phenoxy)-pentyloxy]-benzamidine]	53 ± 4.7^ab %	40 ± 5.1^ac %	69 ± 3.2
CCCNc1nc(-c2ccc(OCCCCCOc3ccc(C(=N)NO)cc3)cc2)c(C)s1 [Compound 88, N-hydroxy-4-{5-[4-(5-methyl-2-propylamino-1,3-thiazol-4-yl)phenoxy]pentyloxy}-benzamidine]	61 ± 11.7%	29 ± 4.7^ac %	63 ± 7.6
CC(C)c1sc(N(C)C)nc1-c1ccc(OCCCCCOc2ccc(C(=N)NO)cc2)cc1 [Compound 161, N-hydroxy-4-{5-[4-(5-isopropyl-2-dimethylamino-1,3-thiazol-4-yl)phenoxy]pentyloxy}-benzamidine]	56 ± 4.3^ab %	47 ± 14.0^a %	79 ± 5.1
CCc1sc(NC(=O)c2cccnc2)nc1-c1ccc(OCCCCCOc2ccc(C(=N)NO)cc2)cc1 [Compound 101, N-hydroxy-4-{5-[4-(5-ethyl-2-(3-pyridylcarbonyl)amino-1,3-thiazol-4-yl)phenoxy]pentyloxy}-benzamidine]	24 ± 3.2^ab %	18 ± 2.8^ac %	50 ± 5.9
N=C(NO)c1ccc(OCCCCCOc2ccc(-c3nc(-c4ccccc4)sc3N)cc2)cc1 [Compound 330, N-hydroxy-4-{5-[4-(5-amino-2-phenyl-thiazol-4-yl)-phenoxy]-pentyloxy}-benzamidine]	23 ± 3.9^ab %	12 ± 2.4^ac %	46 ± 4.7
CCc1sc(NC)nc1-c1ccc(OCCCCCOc2ccc(C(=N)NO)cc2)cc1 [Compound 96, N-hydroxy-4-{5-[4-(5-ethyl-2-methylamino-1,3-thiazol-4-yl)phenoxy]pentyloxy}-benzamidine]	55 ± 10.0%	34 ± 7.1^ac %	74 ± 8.1
Cc1nc(-c2ccc(OCCCCCN(C)c3ccc(C(=N)NO)cc3)cc2)c(C(C)C)s1 [Compound 183, N-hydroxy-4-({5-[4-(5-isopropyl-2-methyl-1,3-thiazol-4-yl)-phenoxy]-pentyl}-methyl-amino)-benzamidine]	26 ± 6.1^ab %	37 ± 5.3^ac %	66 ± 7.4
CCCCCc1nc(-c2ccc(OCCCCCOc3ccc(C(=N)NO)cc3)cc2)c(C)s1 [Compound 15, N-hydroxy-4-{5-[4-(5-methyl-2-pentyl-1,3-thiazol-4-yl)phenoxy]pentyloxy}-benzamidine]	43 ± 11.4%	45 ± 9.2^ac %	69 ± 5.5
Cc1sc(N(C)Cc2ccccc2)nc1-c1ccc(OCCCCCOc2ccc(C(=N)NO)cc2)cc1 [Compound 125, N-hydroxy-4-{5-(4-[2-(benzyl-methyl-amino)-5-methyl-1,3-thiazol-4-yl]phenoxy)pentyloxy}-benzamidine]	43 ± 3.3^ab %	21 ± 9.0^ac %	66 ± 4.4
COCCNCc1sc(N(C)CCN2CCOCC2)nc1-c1ccc(OCCCCCOc2ccc(C(=N)NO)cc2)cc1 [Compound 318, N-hydroxy-4-[5-(4-{5-[(2-methoxy-ethylamino) -methyl]-2-[methyl-(2-morpholin-4-yl-ethyl)-amino]-thiazol-4-yl}-phenoxy) -pentyloxy]-benzamidine]	27 ± 3.0^ab %	12 ± 1.8^ac %	43 ± 3.7
CC(C)c1nc(-c2ccc(OCCCCCOc3ccc(C(=N)NO)cc3)cc2)c(CCn2ccnc2)s1 [Compound 242, N-hydroxy-4-(5-{4-[5-(2-imidazol-1-yl-ethyl)-2-isopropyl-thiazol-4-yl]-phenoxy}-pentyloxy)-benzamidine]	18 ± 3.5^ab %	13 ± 2.8^ac %	58 ± 3.4
CCCCCc1nc(-c2ccc(OCCCCCOc3ccc(C(=N)NO)cc3)cc2)cs1 [Compound 9, N-hydroxy-4-{5-[4-(2-pentyl-1,3-thiazol-4-yl)phenoxy]pentyloxy}-benzamidine]	52 ± 15.8%	43 ± 2.6^ac %	64 ± 3.4
CC(C)c1nc(-c2ccc(OCCCCCOc3ccc(C(=N)NO)cc3)cc2)c(CCN2CCSCC2)s1 [Compound 245, N-hydroxy-4-(5-{4-[2-isopropyl-5-(2-thiomorpholin-4-yl-ethyl)-thiazol-4-yl]-phenoxy}-pentyloxy)-benzamidine]	23 ± 4.9^b %	16 ± 4.1^ac %	35 ± 5.7
N=C(NO)c1ccc(OCCCCCOc2ccc(-c3nc(N4CCOCC4)sc3CN3CCOCC3)cc2)cc1 [Compound 336, N-hydroxy-4-{5-[4-(2-morpholin-4-yl-5-morpholin-4-ylmethyl-thiazol-4-yl)-phenoxy]-pentyloxy}-benzamidine]	22 ± 3.2^ab %	16 ± 3.0^ac %	52 ± 4
N=C(NO)c1ccc(OCCCCCOc2ccc(-c3nc(NC(=O)c4ccncc4)sc3CC3CCCC3)cc2)cc1 [Compound 112, N-hydroxy-4-{5-[4-(5-cyclopentylmethyl-2-(4-pyridylcarbonyl)amino-1,3-thiazol-4-yl)phenoxy]pentyloxy}-benzamidine]	35 ± 7.6^ab %	31 ± 8.0^ac %	77 ± 9.8
CC(C)NCc1sc(N(C)CCN2CCOCC2)nc1-c1ccc(OCCCCCOc2ccc(C(=N)NO)cc2)cc1 [Compound 317, N-hydroxy-4-[5-(4-{5-(isopropylamino-methyl)-2-[methyl-(2-morpholin-4-yl-ethyl)-amino]-thiazol-4-yl}-phenoxy)-pentyloxy]-benzamidine]	18 ± 4.6^ab %	16 ± 3.2^ac %	45 ± 3.2
CCCN(CCC)c1nc(-c2ccc(OCCCCCOc3ccc(C(=N)NO)cc3)cc2)c(C(C)C)s1 [Compound 157, N-hydroxy-4-{5-[4-(5-isopropyl-2-dipropylamino-1,3-thiazol-4-yl)phenoxy]pentyloxy}-benzamidine]	39 ± 8.3^ab %	36 ± 15.1^ac %	78 ± 13.5
COCc1sc(C)nc1-c1ccc(OCCCCCOc2ccc(C(=N)NO)cc2)cc1 [Compound 76, N-hydroxy-4-{5-[4-(5-methoxymethyl-2-methyl-1,3-thiazol-4-yl)phenoxy]pentyloxy}-benzamidine]	31 ± 6.8^ab %	22 ± 3.8^a %	53 ± 6.5
N=C(NO)c1ccc(OCCCCCOc2ccc(-c3nc(CN4CCCCC4)sc3CCN3CCOCC3)cc2)cc1 [Compound 276, N-hydroxy-4-(5-{4-[5-(2-morpholin-4-yl-ethyl)-2-piperidin-1-yl-methyl-thiazol-4-yl]-phenoxy}-pentyloxy)-benzamidine]	21 ± 2.9^b %	11 ± 3.1^c %	41 ± 12.1
Cc1nc(-c2ccc(OCCCCCOc3ccc(C(=N)NO)cc3)cc2)c(N)s1 [Compound 331, N-hydroxy-4-{5-[4-(5-amino-2-methyl-thiazol-4-yl)-phenoxy]-pentyloxy}-benzamidine]	18 ± 4.6^ab %	7 ± 1.2^ac %	43 ± 2.7
N=C(NO)c1ccc(OCCCCCOc2ccc(-c3csc(-c4cccnc4)n3)cc2)cc1 [Compound 7, N-hydroxy-4-{5-[4-(2-pyridine-3-yl-1,3-thiazol-4-yl)phenoxy]pentyloxy}-benzamidine]	35 ± 7.1^b %	34 ± 10.1^c %	52 ± 4.8
CC(C)c1nc(-c2ccc(OCCCCCOc3ccc(C(=N)NO)cc3)cc2)c(CCNCCN2CCOCC2)s1 [Compound 243, N-hydroxy-4-[5-(4-{2-isopropyl-5-[2-(2-morpholin-4-yl-ethylamino)-ethyl]-thiazol-4-yl}-phenoxy)-pentyloxy]-benzamidine]	24 ± 7.7^b %	12 ± 2.3^ac %	36 ± 4.9
CCc1sc(NCCOC)nc1-c1ccc(OCCCCCOc2ccc(C(=N)NO)cc2)cc1 [Compound 102, N-hydroxy-4-{5-[4-(5-ethyl-2-(2-methoxyethyl)amino-1,3-thiazol-4-yl)phenoxy]pentyloxy}-benzamidine]	37 ± 3.6^b %	21 ± 2.6^ac %	47 ± 4
